Literature values, collected in patent US20200113872A1, “Ifetroban Treatment for Systemic Sclerosis” (Cumberland Pharmaceuticals Inc., priority 2016, published 2020).

Tested on: pulmonary artery banded mice

Structure (SMILES): CCCCCNC(=O)c1coc([C@H]2[C@@H](Cc3ccccc3CCC(=O)O)[C@@H]3CC[C@H]2O3)n1 [ifetroban, [1S-(1α,2α,3α,4α)]-2-[[3-[4-[(Pentylamino)carbonyl]-2-oxazolyl]-7-oxabicyclo[2.2.1]hept-2-yl]methyl]-benzenepropanoic acid]
- right ventricular expression of anti-fibrotic and muscularization genes: augmented
- ratio of the early (E) to late (A) ventricular filling velocities (E/A ratio) (one indicator of cardiac efficiency): increased
- expression of genes associated with inflammation (right ventricle): decreased
- cardiomyocyte hypertrophy (treatment with ifetroban): reduced
- right ventricular fibrosis (treatment with ifetroban): reduced
